Source: patent publication US9593069B2, “Cyclohexane-1,3-diones for use in the treatment of amyotrophic lateral sclerosis” (Northwestern University, priority 2009, dated 2017)
≈ marks a conversion by molar mass, not a printed value. Read-outs that look alike come from different tables or passages of the source. Values belong to the compound of their own block, whether it stands above or below them. Peptide text beside a SMILES is read from it. * marks the point of attachment. Cbz = O=C(OCc1ccccc1)*

Tests used:
primary cortical neurons = assay: Neuronal penetration assay (protection from MG132 toxicity); type: cell-based; conditions: for Different from control at 5 SD*: primary cortical neurons, toxic dose of MG132, 5 SD = Standard Deviation (5σ)
Experimental: Neurons are a highly differentiated cell type, and it has been commonly observed that many chemical structures are unable to penetrate into these cells. In many embodiments, a drug used to treat a neurodegenerative disease should desirably penetrate into neurons.
A neuronal penetration assay was developed as follows. […] In order to determine if this compound could protect primary cortical neurons from MG132 toxicity primary cortical neurons were treated with a toxic dose of MG132 together with various concentrations of 5-(3,5-bis(trifluoromethyl)phenyl)cyclohexane-1,3-dione. […] Analogs of 5-(3,5-bis(trifluoromethyl)phenyl)cyclohexane-1,3-dione were then prepared and tested to determine whether chemical modifications would lead to a compound with neuronal cell penetrating ability. […] As summarized in Table 2 below, these analogs also retained protective activity against mutant SOD1 toxicity.

[1] = test system: PC12 cells that express mutant G93A SOD1; assay: High throughput cytotoxicity protection assay (PC12 Protection Assay); type: cell-based
Source text: Cultured cells are utilized to conduct high throughput assays for compounds that protect against mutant SOD1-induced cytotoxicity. Two assays are used: first, in the cytotoxicity protection assay, compounds are screened for their ability to protect cells from the cytotoxic effects of aggregated mutant SOD1, irrespective of mechanism of drug action. Second, in the protein aggregation assay, compounds are screened for their ability to reduce aggregation of mutant SOD1. The high throughput cytotoxicity protection assay is the primary screen and compounds active in the primary screen (and their analogs) move forward into the secondary screen for protein aggregation.
(§1) The high throughput cytotoxicity protection assay was carried out in PC12 cells that express mutant G93A SOD1 as a YFP fusion protein from a doxycycline-inducible promoter (Matsumoto et al., J. Cell. Biol. 2005, 171, 75). […] This idea was tested by examining the sensitivity of PC12 cells to SOD1 aggregates in the presence and absence of proteasome inhibitor MG132. PC12 cells expressing no SOD1, wild type SOD1, G85R SOD1 or G93A SOD1 were grown with or without MG132 (FIG. 1). Cells expressing no SOD1, wild type SOD1 and G85R SOD1 were relatively insensitive to MG132, with an IC50 of approximately 400 nM. […] In these cells, protein aggregation was detected after 24 h and loss of cell viability was detected at approximately 48 h. […] The ability of protein aggregates to induce cell death was examined by treating G93A SOD1-expressing cells with MG132 for 24 h, removing the MG132 by washing and assaying cell viability after another 24 h. Because the loss of cell viability was similar following MG132 removal (FIG. 1, part C), it is likely that mutant SOD1 aggregates contribute directly to cytotoxicity in PC12 cells.
(§2) PC12 cells expressing G93A SOD1 were treated with 100 nM MG132 with or without co-treatment with geldanamycin or radicicol. […] Statistical analysis of the data produced a Z′ value of 0.55, which would predict good performance as a positive control in a high throughput screen (Zhang et al., J. Biomol. Screen 1999, 4(2), 67-73).

[2] = In vivo pharmacological properties
[3] = test system: PC12 cells expressing no SOD1, wild type SOD1 and G85R SOD1; assay: MG132 sensitivity, cell survival by viability stain calcein-AM; type: cell-based; conditions: Rattus norvegicus, PC-12, read-out: IC50 (loss of cell viability)
Experimental: (§3) FIGS. 1A-C. Proteasome inhibition is selectively toxic to PC12 cells expressing mutant G93A SOD1. Cell survival was determined using the viability stain calcein-AM.
as §1

[4] = test system: PC12 cells expressing G93A SOD1; assay: as above; type: cell-based; conditions: for toxicity (cell survival): 100 nM
Experimental: as §3, §1

[5] = test system: PC12 cells expressing wild-type SOD1; assay: Mutant SOD1 direct protein aggregation assay; type: cell-based
Source text: (§4) In PC12 cells that express wild-type SOD1, SOD1 was diffusely localized throughout the cell (Matsumoto et al., J. Cell. Biol 2005, 171(1), 75-85). […] Therefore, these effects are likely to be due to MG132-induced proteasome inhibition, and not due to an off-target effect of MG132.

[6] = test system: PC12 cells expressing G85R SOD1; assay: Mutant SOD1 direct protein aggregation assay; type: cell-based
Source text: Compounds that are active in the above assay could theoretically protect against mutant SOD1-induced cytotoxicity through a number of mechanisms, including the following: 1) Compounds could nonspecifically block or reverse protein aggregation via chaperone induction, as observed for radicicol and geldanamycin 2) Compounds could block or reverse the aggregation of a specific aggregated protein form 3) Compounds could interfere with an event downstream of protein aggregation that plays a critical role in mutant SOD1-induced cytotoxicity (e.g., proteasome function). 4) Compounds could act directly on SOD1 in a manner that prevents mutant SOD1 aggregation. These possibilities were tested using an assay that directly measures protein aggregation. In addition, unlike the high throughput cytotoxicity protection assay, the protein aggregation assay is based on G85R SOD1; this broadens the scope of the screening strategy, and should eliminate compounds with highly specific activity (i.e., G93A SOD1 limited) against protein aggregation.
as §4
(§5) The identification of a positive control is a crucial step in assay development. Thus, PC12 cells expressing G85R or G93A mutant SOD1 were treated with MG132 to induce protein aggregation, and then co-treated with candidate chemical suppressors of protein aggregation. […] Both compounds induce heat shock transcription factor HSF-1, which in turn induces the heat shock response (FIG. 4). Treatment with radicicol reduced the proportion of cells with aggregates from 75% to 25%, a sufficient difference to allow visual scoring for compounds with efficacy equal to or greater than radicicol.
To allow this assay to be used in a high-throughput manner, a Cellomics Arrayscan® high content microscopy system was used for screening and quantification. […]

[7] = test system: PC12 cells expressing G93A mutant SOD1; assay: Mutant SOD1 direct protein aggregation assay; type: cell-based
Experimental: as §2, §4, §5

Plasma stability = type: in vitro ADME
Experimental: Plasma stability of active compounds is assessed in efficacy species (mouse), toxicity species (rat, dog, monkey), and human cells.

[8] = Mouse metabolic potential; type: in vitro ADME
Experimental: (§6) Liver Cytochrome P450 (CYP450) enzymes are the major route for xenobiotic metabolism and microsomal and hepatocyte stability is the best predictor of pharmacokinetic half-life. Cross-species comparisons of metabolism in liver microsomes can predict potential issues with liver toxicity in humans. Selected active compounds are tested in liver microsomes from efficacy species (mouse), toxicity species (rat, dog, monkey), and humans for metabolic stability.

[9] = Human metabolic potential; type: in vitro ADME
Experimental: as §6

Caco-2 = Caco-2 permeability; type: in vitro ADME
Experimental: High membrane permeability is required for effective GI absorption and optimal bioavailability. Passive permeability is typically assessed in the PAMPA artificial membrane assay (Kansy et al., J. Med. Chem. 2002, 45(8), 1712-1722). Cell-based permeability determinations using the Caco-2 cell assay are more resource intensive but more predictive of active transport or efflux in vivo (Artursson et al., Adv. Drug. Deliv. Rev. 2001, 46(1-3), 27-43). Caco-2 assays are performed as needed during SAR development.

Solubility = type: physicochemical; conditions: aqueous solution
Experimental: Because compounds are stored in DMSO, it is necessary to determine aqueous solubility of initial hit compounds and their analogs. High solubility in aqueous solution is necessary for high GI absorption, bioavailability, and for chemical formulation. Compounds should be soluble in aqueous solution at >10 μg/ml. Solubility of >50 μg/ml is preferred.

[10] = Rattus norvegicus, PC-12; read-out: PC12 Protection Assay (Average EC50)

SMILES: O=C1CC(=O)CC(C2CC2c2cc(C(F)(F)F)cc(C(F)(F)F)c2)C1 (stereo not drawn)
Different from control at 5 SD* (primary cortical neurons): YES | EC50 [1, 10]: ~3500 nM

SMILES: CCCCCCCCCCC(=O)OC1=CC(=O)CC(c2cc(C(F)(F)F)cc(C(F)(F)F)c2)C1 (stereo not drawn)
EC50 [1, 10]: ~1500 nM

SMILES: CC(Oc1cc(C(F)(F)F)cc(C(F)(F)F)c1)C1CC(=O)CC(=O)C1 (stereo not drawn)
Different from control at 5 SD* (primary cortical neurons): YES | EC50 ([1]; Rattus norvegicus, PC-12, read-out: PC12 Protection Assay (Average EC50)): ~4000 nM

half-life ([2]; blood): ~3.5 h | blood brain barrier penetration ([2]; in vivo): penetration of the blood brain barrier | oral availability ([2]; in vivo, po): good oral availability
SMILES: O=C1CC(=O)CC(c2cc(C(F)(F)F)cc(C(F)(F)F)c2)C1 [5-(3,5-bis(trifluoromethyl)phenyl)cyclohexane-1,3-dione]
protection of primary cortical neurons from MG132 toxicity (primary cortical neurons; various concentrations, FIG. 6): no dose of this compound was effective in protecting the primary cortical neurons | EC50 ([1]; Rattus norvegicus, PC-12; read-out: potency): ~1500 nM | protection of cultured PC12 cells / protective activity against mutant SOD1 toxicity ([1]; toxic effects of MG132): protects cultured PC12 cells from the toxic effects of MG132 | volume of distribution in vivo ([2]; in vivo): surprisingly small volume of distribution

SMILES: CC(C)C[C@@H](C=O)NC(=O)[C@H](CC(C)C)NC(=O)[C@H](CC(C)C)NC(=O)OCc1ccccc1 [MG132] (Cbz-Leu-Leu-Leu-aldehyde)
IC50 [3]: ~400 nM | toxicity (cell survival) ([4]; 24 hr, any of the cell lines): no toxicity | toxicity (cell survival) ([4]; after 48 hours): selectively toxic to the G93A SOD1 cell line | sensitivity of G93A SOD1 cells relative to the other cell lines ([4]; G93A SOD1 vs no SOD1, wild type SOD1, G85R SOD1 cells): approximately 5 fold | IC50 ([4]; Rattus norvegicus, PC-12, read-out: IC50 (loss of cell viability)): ~75 nM | protein aggregation after treatment [5]: no aggregation was observed | cells containing protein aggregates after treatment ([6]; cells expressing G85R SOD1): up to 75% | cells with protein aggregates following treatment ([7]; cells expressing G93A mutant SOD1): 75%

SMILES: CC(C)C[C@H](NC(=O)[C@H](Cc1ccccc1)NC(=O)c1cnccn1)B(O)O [bortezomib]
sensitivity of PC12 cell lines to proteasome inhibitor, compared with MG132 [4]: Qualitatively similar results

SMILES: O=C1CC(=O)CC(c2cc(C(F)(F)F)cc(C(F)(F)F)c2)C1 [drawing 215]
EC50 [1, 10]: ~1500 nM

Plasma Stability (Plasma stability): medium | Mouse Metabolic Potential [8]: low | half-life ([8]; liver microsomes, read-out: Mouse Metabolic Potential T1/2): > 3 h | Human Metabolic Potential [9]: low | half-life ([9]; liver microsomes, read-out: Human Metabolic Potential T1/2): > 3 h | Caco-2 predicted permeability (Caco-2): high predicted permeability | Caco-2 A − B (Caco-2; A − B): 38 ×10⁻⁶ cm/s | solubility (Solubility): 500 µM (≈ 162 µg/mL)
SMILES: O=C1CC(=O)CC(c2cc(C(F)(F)F)cc(C(F)(F)F)c2)C1 [drawing 217]
EC50 ([1]; Rattus norvegicus, PC-12; read-out: Potency (EC50)): 700 nM

SMILES: C[C@@H]1C[C@H]2O[C@@H]2/C=C\C=C\C(=O)Cc2c(Cl)c(O)cc(O)c2C(=O)O1 [radicicol]
cell viability of G93A SOD1 cells under MG132 ([1]; co-treatment with 100 nM MG132): increased cell viability in a dose-dependent manner | cell viability of G93A SOD1 cells under MG132 ([1]; co-treatment with 100 nM MG132; listed as Radicicol): protects | suppression of MG132-induced mutant SOD1 aggregation ([6]; G93A or G85R SOD1 cells, MG132 co-treatment): aggregates are reduced | proportion of cells with aggregates on co-treatment ([6]; PC12 cells expressing G85R or G93A mutant SOD1, MG132 co-treatment, 75% without): 25% | formation of protein aggregates ([7]; G93A SOD1 cells, 100 nM MG132): reduced formation of protein aggregates
